As a reminder, the Ki is the equilibrium dissociation constant of an inhibitor or competing ligand from its target.

This is an account of results in ChEMBL document CHEMBL1926659, “CK2α and CK2α' subunits differ in their sensitivity to 4,5,6,7-tetrabromo- and 4,5,6,7-tetraiodo-1H-benzimidazole derivatives” (Eur J Med Chem, 2012).

In test [1] the target is T1, Casein kinase II subunit alpha' (Homo sapiens, UniProt P19784). The test is described as follows: Inhibition of human CK2 alpha' catalytic subunit expressed in Escherichia coli […] (DE3) assessed as [33P]gamma-ATP incorporation into RRRADDSDDDDD substrate after 15 mins by scintillation counting.
T1 sequence (P19784 whole entry): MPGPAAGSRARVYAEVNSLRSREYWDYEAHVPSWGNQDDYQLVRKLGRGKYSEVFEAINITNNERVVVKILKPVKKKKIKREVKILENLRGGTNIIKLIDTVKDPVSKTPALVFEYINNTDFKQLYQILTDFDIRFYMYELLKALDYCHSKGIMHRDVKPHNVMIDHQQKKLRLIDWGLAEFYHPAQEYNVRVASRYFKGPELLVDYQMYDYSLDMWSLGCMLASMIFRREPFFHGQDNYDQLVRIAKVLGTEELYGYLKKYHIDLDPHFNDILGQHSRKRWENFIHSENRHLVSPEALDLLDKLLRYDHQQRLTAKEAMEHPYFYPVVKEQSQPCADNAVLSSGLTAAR
Test [2] deals with T1, Casein kinase II subunit alpha'. The test is described as follows: Inhibition of human CK2 alpha' catalytic subunit expressed in Escherichia coli BL21 (DE3) assessed as [33P]gamma-ATP incorporation into P2B substrate after 15 mins by scintillation counting.
Test [3] concerns the target T2, Casein kinase II subunit alpha (Homo sapiens, UniProt P68400). Briefly: Inhibition of human CK2 alpha catalytic subunit expressed in Escherichia coli BL21 (DE3) assessed as [32P]gamma-ATP incorporation into RRRADDSDDDDD substrate after 15 mins by scintillation counting.
Test [4] deals with T2, Casein kinase II subunit alpha. Briefly: Inhibition of human CK2 alpha catalytic subunit expressed in Escherichia coli BL21 (DE3) assessed as [32P]gamma-ATP incorporation into P2B substrate after 15 mins by scintillation counting.

T2 sequence (P68400 whole entry): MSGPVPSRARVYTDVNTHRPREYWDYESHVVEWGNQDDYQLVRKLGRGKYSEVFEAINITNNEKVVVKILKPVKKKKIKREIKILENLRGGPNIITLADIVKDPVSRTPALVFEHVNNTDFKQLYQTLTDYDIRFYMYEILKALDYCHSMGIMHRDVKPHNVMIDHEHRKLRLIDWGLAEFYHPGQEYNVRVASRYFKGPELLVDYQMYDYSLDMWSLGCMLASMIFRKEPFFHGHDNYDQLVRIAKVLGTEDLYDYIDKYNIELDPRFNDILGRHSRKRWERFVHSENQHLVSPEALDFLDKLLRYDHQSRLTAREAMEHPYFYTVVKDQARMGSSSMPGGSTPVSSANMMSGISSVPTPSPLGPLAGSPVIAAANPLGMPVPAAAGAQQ

As for `Cn1c(SCCC(=O)O)nc2c(Br)c(Br)c(Br)c(Br)c21`, the Ki in test [1] amounted to 55 nM; in test [2], 100 nM; in test [3], 137 nM; in test [4], 112 nM.
The matching figures for `O=C(O)CSc1nc2c(Br)c(Br)c(Br)c(Br)c2[nH]1`: 49 nM, 37 nM, 170 nM and 106 nM.
The matching figures for `O=C(O)CCCn1cnc2c(Br)c(Br)c(Br)c(Br)c21`: 195 nM, 188 nM, 368 nM and 472 nM.
On to `Brc1c(Br)c(Br)c2[nH]cnc2c1Br`, for which the figures for the Ki in test [1] and in test [2] were 343 nM and 270 nM, respectively.
Turning to `CN(C)c1nc2c(Br)c(Br)c(Br)c(Br)c2n1CCCC(=O)O`, the Ki is 93 nM in test [1], 139 nM in test [2], 456 nM in test [3] and 860 nM in test [4].
The matching figures for `O=C(O)CCCSc1nc2c(Br)c(Br)c(Br)c(Br)c2[nH]1`: 44 nM, 88 nM, 210 nM and 77 nM.
The matching figures for `CN(C)c1nc2c(Br)c(Br)c(Br)c(Br)c2n1CC(=O)O`: 21 nM, 66 nM, 83 nM and 88 nM.
The matching figures for `CN(C)c1nc2c(Br)c(Br)c(Br)c(Br)c2n1C`: 35 nM, 109 nM, 154 nM and 212 nM.
Regarding `O=C(O)Cn1cnc2c(Br)c(Br)c(Br)c(Br)c21`, the Ki came out at 342 nM in test [1], 609 nM in test [2], 670 nM in test [3] and 798 nM in test [4].
The matching figures for `O=C(O)CSc1nc2c(I)c(I)c(I)c(I)c2[nH]1`: 106 nM, 78 nM, 80 nM and 110 nM.
The matching figures for `Cn1c(SCCCC(=O)O)nc2c(Br)c(Br)c(Br)c(Br)c21`: 768 nM, 83 nM, 501 nM and 88 nM.
The matching figures for `Cn1c(SCC(=O)O)nc2c(Br)c(Br)c(Br)c(Br)c21`: 24 nM, 200 nM, 13 nM and 143 nM.
For the compound `Ic1c(I)c(I)c2[nH]cnc2c1I`, the Ki turned out to be 21 nM in test [1], 71 nM in test [2], 43 nM in test [3] and 266 nM in test [4].
In the case of `O=C(O)CCSc1nc2c(Br)c(Br)c(Br)c(Br)c2[nH]1`, the Ki is 31 nM in test [1], 35 nM in test [2], 172 nM in test [3] and 116 nM in test [4].
The matching figures for `O=C(O)Cn1cnc2c(I)c(I)c(I)c(I)c21`: 324 nM, 62 nM, 261 nM and 378 nM.
